Consider two substances from US9487553B2, “Boranophosphate analogues of cyclic nucleotides” (BIOLOG LIFE SCIENCE INSTITUTE FORSCHUNGSLABOR UND …, priority 2011, dated 2016).

The nature of data set [1]: Degradation Example 1: oxidation with hydrogen peroxide, monitored by HPLC. It counts as physicochemical. The following applies: after further addition of 10 μl of 30% H2O2, two hours at RT. An excerpt:
In order to check out the stability of the boranophosphates described in this invention towards oxidising conditions in comparison to the corresponding phosphorothioates, 0.1 μmol of the sodium salts of each, Rp-8-bromoadenosine-3′,5′-cyclic boranophosphate (Rp-8-Br-cAMPB, example 1), Sp-8-bromoadenosine-3′,5′-cyclic boranophosphate (Sp-8-Br-cAMPB, example 2), Rp-8-bromoadenosine-3′,5′-cyclic phosphorothioate (Rp-8-Br-cAMPS, Biolog) and Sp-8-bromoadenosine-3′,5′-cyclic phosphorothioate (Sp-8-Br-cAMPS, Biolog) were dissolved in 100 μl of eluent and the mixture was analyzed by HPLC (RP-18, 11% acetonitrile, 20 mM triethylammonium formate buffer, pH 6.1, 1.5 ml/min, UV 258 nm). The following elution profile was recorded: Rp-8-Br-cAMPS (5:13 min.)<Sp-8-Br-cAMPS (7:23 min.)<Sp-8-Br-cAMPB (9:13 min.)<Rp-8-Br-cAMPB ([…].).
Subsequently, aqueous hydrogen peroxide (Merck) was added in small portions while the stability of the four compounds was permanently monitored over time.
10 μl of H2O2 (0.3%) as well as 10 μl of 3% H2O2 were added to no effect.

For data set [2], the target named is protein kinase A type I alpha holoenzyme (Homo sapiens, UniProt P10644). Description: Standard photometric (Cook) assay with protein kinase A type I alpha holoenzyme. It counts as biochemical. As to conditions: holoenzyme RIα. The source says: In a first experiment, the biological activity of the Rp- and Sp-isomer of 8-bromoadenosine-3′,5′-cyclic boranophosphate (examples 1 and 2) has been tested with the holoenzyme of protein kinase A type I alpha (FIGS. 3 and 4) using a standard photometric assay (Cook, P. F.; Neville, M. E., Jr.; Vrana, K. E.; Hartl, F. T. and Roskoski, R., Jr., Biochemistry 21, 5794-5799 (1982)).
Sequence of protein kinase A type I alpha holoenzyme (P10644 whole entry): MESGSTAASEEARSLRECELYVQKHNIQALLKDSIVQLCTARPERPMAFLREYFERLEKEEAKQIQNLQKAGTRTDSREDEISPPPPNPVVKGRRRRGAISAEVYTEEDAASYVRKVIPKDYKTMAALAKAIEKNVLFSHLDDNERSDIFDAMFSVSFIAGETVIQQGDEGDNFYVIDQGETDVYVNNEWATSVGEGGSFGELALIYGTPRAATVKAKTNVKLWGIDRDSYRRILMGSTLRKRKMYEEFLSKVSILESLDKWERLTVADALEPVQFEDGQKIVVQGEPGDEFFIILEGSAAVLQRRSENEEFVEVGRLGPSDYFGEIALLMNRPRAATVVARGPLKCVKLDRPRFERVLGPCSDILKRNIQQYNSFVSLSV
As a control, two boranophosphate analogues with a 2′-O-methyl modification (Rp-2′-O-Me-cAMPB and Sp-2′-O-Me-cAMPB, examples 7 & 8) have been tested by the same type of assay with protein kinase A type I alpha as well.
FIG. 5 depicts the activity overview of four different cyclic boranophosphate analogues with protein kinase A type I alpha holoenzyme. 9108: Sp-2′-O-Me-cAMPB; 9109: Rp-2′-O-Me-cAMPB; 9110: Sp-8-Br-cAMPB; 9111: Rp-8-Br-cAMPB; controls: B 001: Rp-8-Br-cAMPS. Control: cAMP. “Cook Assay” with Holoenzyme RIα.

In data set [3] the target is protein kinase A type II alpha holoenzyme (Homo sapiens, UniProt P13861). Description: Photometric (Cook) assay with protein kinase A type II alpha holoenzyme. Type of data set: biochemical. The following applies: for effect on protein kinase A type II alpha holoenzyme: photometric assay. An excerpt: In another similar experiment the properties of Rp- and Sp-8-Br-cAMPB towards protein kinase A type II a were investigated in the photometric assay (Cook, P. F., Neville, M. E., Jr., Vrana, K. E., Hartl, F. T. and Roskoski, R., Jr., Biochemistry 21, 5794-5799 (1982))
Sequence of protein kinase A type II alpha holoenzyme (P13861 whole entry): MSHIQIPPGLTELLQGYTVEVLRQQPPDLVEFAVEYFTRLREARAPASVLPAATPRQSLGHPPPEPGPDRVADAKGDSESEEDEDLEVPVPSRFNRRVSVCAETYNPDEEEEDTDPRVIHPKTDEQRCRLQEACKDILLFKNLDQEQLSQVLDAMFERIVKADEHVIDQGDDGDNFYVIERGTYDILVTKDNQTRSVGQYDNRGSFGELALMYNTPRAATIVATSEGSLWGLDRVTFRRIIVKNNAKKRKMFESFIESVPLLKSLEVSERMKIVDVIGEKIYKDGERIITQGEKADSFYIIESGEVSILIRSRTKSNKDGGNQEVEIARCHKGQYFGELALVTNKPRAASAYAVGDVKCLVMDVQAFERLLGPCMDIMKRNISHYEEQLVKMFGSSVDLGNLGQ

The target of another data set is T1, protein kinase G I α (Homo sapiens, UniProt Q13976).
T1 sequence (Q13976 1-671): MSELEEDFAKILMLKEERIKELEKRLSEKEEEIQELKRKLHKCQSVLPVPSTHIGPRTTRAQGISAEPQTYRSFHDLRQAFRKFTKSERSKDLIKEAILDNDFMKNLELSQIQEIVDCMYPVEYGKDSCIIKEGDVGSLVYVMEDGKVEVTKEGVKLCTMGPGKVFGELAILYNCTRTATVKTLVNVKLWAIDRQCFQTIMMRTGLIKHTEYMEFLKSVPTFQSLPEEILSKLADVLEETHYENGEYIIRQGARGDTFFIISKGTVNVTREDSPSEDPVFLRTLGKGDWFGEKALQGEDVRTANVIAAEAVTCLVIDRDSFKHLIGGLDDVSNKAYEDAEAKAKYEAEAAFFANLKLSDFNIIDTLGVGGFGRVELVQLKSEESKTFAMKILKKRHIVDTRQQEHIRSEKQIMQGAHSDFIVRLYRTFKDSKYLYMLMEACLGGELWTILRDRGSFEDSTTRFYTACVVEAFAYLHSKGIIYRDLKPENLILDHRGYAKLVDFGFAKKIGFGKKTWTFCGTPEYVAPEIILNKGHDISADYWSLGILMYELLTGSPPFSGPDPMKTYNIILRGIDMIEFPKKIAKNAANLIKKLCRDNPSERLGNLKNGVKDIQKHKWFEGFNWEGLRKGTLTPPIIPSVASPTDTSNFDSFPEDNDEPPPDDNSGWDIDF
Kind of data set: Protein kinase G I alpha activation, phosphotransferyl assay. It counts as biochemical. The following applies: 10 nM, 100 nM and 1 μM. An excerpt:
Next, the activity profile of some cyclic boranophosphates disclosed in this invention has also been investigated on protein kinase G I α (FIGS. 8 and 9). Potential activatory potential towards the enzyme has been determined by a standard phosphotransferyl assay protocol according to Dostmann et al. (Dostmann, W. R.; Nickl, C.; Thiel, S.; Tsigelny, I.; Frank, R.; and Tegge, W. J., Pharmacol. Ther., 82, 373-387 (1999). FIG. 8 depicts the activity (μmol×min^−1×mg^−1) overview of six different cyclic boranophosphate analogues with protein kinase G type I at 10 nM, 100 nM and 1 μM. BLG-9108: […]; BLG-9110: Sp-8-Br-cAMPB; BLG-9111: Rp-8-Br-cAMPB; BLG-9112: Sp-8-Br-cGMPB; BLG-9113: Rp-8-Br-cGMPB; control: cyclic GMP.

In the case of “8-Bromoadenosine-3′,5′-cyclic boranophosphate, Rp-isomer [Rp-8-Br-cAMPB]”, the “HPLC signal area lost” value in data set [1] turned out to be 35%. Moreover, in data set [2], the “effect on protein kinase A type I alpha holoenzyme” value was “agonistic property”. Moreover, the “effect on protein kinase A type II alpha holoenzyme” value in data set [3] is listed as “even higher activation potential”. In addition, at protein kinase G I α, the “modulation of protein kinase G” value is reported as “as potent or even better as guanine related compounds”.

Turning to “8-Bromoadenosine-3′,5′-cyclic boranophosphate, Sp-isomer [Sp-8-Br-cAMPB]”, the “HPLC signal area lost” value in data set [1] is on record as 35%. Moreover, the “effect on protein kinase A type I alpha holoenzyme” value in data set [2] is listed as “inhibitory potential”. In data set [3] (antagonist), the “preference for protein kinase A type I over type II, factor” value came out at 14. Moreover, the “effect on protein kinase A type II alpha holoenzyme” value in data set [3] is reported as “only moderately antagonistic”. Further, on protein kinase G I α, the “modulation of protein kinase G” value was “as potent or even better as guanine related compounds”.
